Data as given in US9585877B2, “Methods of maintaining, treating or improving cognitive function” (Forum Pharmaceuticals, Inc., priority 2012, dated 2017).

Experiments:
Type in all cases: in vivo, human
[1] = test system: subjects with mild-to-moderate Alzheimer's disease; assay: Clinical study, Mini-Mental State Examination (MMSE)
Description: (§1) A double-blind study of 3 doses of the Test Composition or placebo in subjects with mild-to-moderate Alzheimer's disease, with or without receiving a concomitant AChEI for 24 weeks (168 days) after a 7 day placebo run-in period.
(§2) Total number of subjects in the safety population was 409 subjects that were dosed once-daily with a dosing-capsule for a period of 168 days. The subjects dosed, and the particular dosing, included: 104 subjects dosed with Placebo capsule; and 305 subjects dosed with Test Compound (104 subjects with 0.3 mg capsules; 101 subjects with 1 mg capsules; and 100 subjects with 2 mg capsules).
(§3) The population included generally healthy male or female subjects, aged 50 to ≦85 years, with mild-to-moderate Alzheimer's disease, consistent with criteria defined by a Work Group of the National Institute of Neurological and Communicative Disorders and Stroke—Alzheimer's Disease and Related Disorders Association, of mild to moderate severity, with a Mini-Mental State Examination score (MMSE) 14 and ≦24, and a Clinical Dementia Rating Scale Sum of the Boxes (CDR-SB) score of 2. […] Subjects were required to be either receiving a stable dose of an AChEI (donepezil or rivastigmine) for at least 3 months before screening or not presently being treated with an AChEI or mementine for at least 30 days.
(§4) Subjects with mild to moderate Alzheimer's disease receiving stable treatment with an AChEI (donepezil or rivastigmine: ‘add-on’ subjects) or not receiving an AChEI (de novo subjects′) received 0.3, 1, or 2 mg doses of Test Composition or placebo for up to 24 weeks (168 days) of double-blind treatment, after a 7-day single-blind, placebo run-in period to assess study drug compliance. A follow-up telephone contact was conducted approximately 15 days after the last dose of study drug for questions regarding safety.
Mini-Mental State Examination (MMSE)
The MMSE test employed herein is based on the procedure developed by Folstein, M., Folstein, S., McHugh, P. Mini-Mental State: “A Practical Method for Grading the Cognitive State of Patients for the Clinician”; Journal of Psychiatric Research 1975, 12:189-98.
The MMSE test assesses and/or evaluates memory, orientation, recognition, attention, concentration, language, and praxis. The MMSE total score ranges from 0 to 30 points. Lower scores indicate a lower level of functioning. An increase from baseline indicates improvement.

[2] = test system: subjects with mild-to-moderate Alzheimer's disease; assay: Clinical study, Memory composite score
Description: as §1, §4
(§5) These analyses were prespecified in the analytical plan (ITT population), and included the following: Cognition composite score (ADAS-cog Word Recall, Word Recognition, & Orientation, and COWAT and CFT), Memory composite score (ADAS-cog Word Recall, Word Recognition, and Orientation), and Executive Function composite score (COWAT and CFT).
(§6) Composite Scores—Three composite scores were calculated: (1) Composite Cognition Score (ADAS-cog Word Recall, Word Recognition, and Orientation, COWAT and CFT); (2) Memory Composite Score (ADAS-cog Word Recall, Word Recognition, and Orientation); and (3) Executive Function Composite Score (COWAT and CFT).
(§7) The composite score is only computed when all test scores are available.

[3] = test system: subjects with mild-to-moderate Alzheimer's disease; assay: Clinical study, ADCS-ADL
Description: as §1, §2, §3, §4
Alzheimer's Disease Cooperative Study Group-Activities of Daily Living Scale (ADCS-ADL, or sometimes referred to as ADCS-ADL-23):
The ADCS-ADL-23 test employed herein is based on the procedure developed by Galasko D, Bennett D, Sano M, et al., Alz Dis Assoc Disord (1997) 11(2): S33-S39.
The ADCS-ADL test assesses the actual performance of specific actions and behaviors by a patient as observed by a caregiver/informant.

[4] = test system: subjects with mild-to-moderate Alzheimer's disease; assay: Responder analysis: PK/PD effects (ADAS-Cog)
Description: The response by plasma level of Test Compound was also investigated. A ‘responder’ definition of >3 pt ADAS-Cog effect was utilized. The plasma levels of responders and nonresponders informed a logistic regression model. […] FIG. 12 illustrates the mean plasma concentration levels (including the 95% confidence levels and the measured extremes) of Test Compound, and FIG. 13 illustrates the Exposure Response analysis, using plasma concentration levels of Test Compound and ADAS-Cog-13 changes. The relationship between dose and likelihood of clinical response, as defined by either an ADAS-Cog effect ≧3 points, or ≧2 points, is summarized in Table 19: […]

[5] = test system: subjects with mild-to-moderate Alzheimer's disease; assay: Clinical study, Executive Function composite score; settings: for Executive function composite score Effect Size: over a 23 week period
Description: as §1, §4, §5, §6, §7

Cl.O.O=C(N[C@H]1CN2CCC1CC2)c1cc2cccc(Cl)c2s1 [Test Compound, (R)-7-chloro-N-(quinuclidin-3-yl)benzo[b]thiophene-2-carboxamide, hydrochloride, monohydrate]
MMSE (Baseline was assigned the value of zero @ Week 0) ([1]; 0.3 mg daily dose, Week 4): −0.0411 | MMSE (Baseline was assigned the value of zero @ Week 0) ([1]; 0.3 mg daily dose, Week 12): 0.185 | MMSE (Baseline was assigned the value of zero @ Week 0) ([1]; 0.3 mg daily dose, Week 18): −0.3601 | MMSE (Baseline was assigned the value of zero @ Week 0) ([1]; 0.3 mg daily dose, Week 23): −0.3112 | MMSE (Baseline was assigned the value of zero @ Week 0) ([1]; 1 mg daily dose, Week 4): 0.9142 | MMSE (Baseline was assigned the value of zero @ Week 0) ([1]; 1 mg daily dose, Week 12): 0.7836 | MMSE (Baseline was assigned the value of zero @ Week 0) ([1]; 1 mg daily dose, Week 18): 0.7253 | MMSE (Baseline was assigned the value of zero @ Week 0) ([1]; 1 mg daily dose, Week 23): 0.4416 | MMSE (Baseline was assigned the value of zero @ Week 0) ([1]; 2 mg daily dose, Week 4): 0.5262 | MMSE (Baseline was assigned the value of zero @ Week 0) ([1]; 2 mg daily dose, Week 12): 0.3526 | MMSE (Baseline was assigned the value of zero @ Week 0) ([1]; 2 mg daily dose, Week 18): 0.723 | MMSE (Baseline was assigned the value of zero @ Week 0) ([1]; 2 mg daily dose, Week 23): 0.5139 | MMSE Effect Size ([1]; 2 mg dose versus Placebo): 0.21 | Memory Composite Score (Baseline was assigned the value of zero @ Week 0) ([2]; 0.3 mg daily dose, Week 4): −0.0084 | Memory Composite Score (Baseline was assigned the value of zero @ Week 0) ([2]; 0.3 mg daily dose, Week 12): −0.0108 | Memory Composite Score (Baseline was assigned the value of zero @ Week 0) ([2]; 0.3 mg daily dose, Week 18): −0.0294 | Memory Composite Score (Baseline was assigned the value of zero @ Week 0) ([2]; 0.3 mg daily dose, Week 23): −0.0645 | Memory Composite Score (Baseline was assigned the value of zero @ Week 0) ([2]; 1 mg daily dose, Week 4): −0.0062 | Memory Composite Score (Baseline was assigned the value of zero @ Week 0) ([2]; 1 mg daily dose, Week 12): 0.08 | Memory Composite Score (Baseline was assigned the value of zero @ Week 0) ([2]; 1 mg daily dose, Week 18): −0.0456 | Memory Composite Score (Baseline was assigned the value of zero @ Week 0) ([2]; 1 mg daily dose, Week 23): 0.0113 | Memory Composite Score (Baseline was assigned the value of zero @ Week 0) ([2]; 2 mg daily dose, Week 4): −0.0032 | Memory Composite Score (Baseline was assigned the value of zero @ Week 0) ([2]; 2 mg daily dose, Week 12): 0.1021 | Memory Composite Score (Baseline was assigned the value of zero @ Week 0) ([2]; 2 mg daily dose, Week 18): 0.117 | Memory Composite Score (Baseline was assigned the value of zero @ Week 0) ([2]; 2 mg daily dose, Week 23): 0.169 | Memory composite score Effect Size ([2]; 2 mg versus placebo, over a 23 week period): 0.37 | ADCS-ADL (Baseline was assigned the value of zero @ Week 0) ([3]; 0.3 mg daily dose, Week 4): 0.07926 | ADCS-ADL (Baseline was assigned the value of zero @ Week 0) ([3]; 0.3 mg daily dose, Week 12): −0.5757 | ADCS-ADL (Baseline was assigned the value of zero @ Week 0) ([3]; 0.3 mg daily dose, Week 18): −0.6255 | ADCS-ADL (Baseline was assigned the value of zero @ Week 0) ([3]; 0.3 mg daily dose, Week 23): −1.8992 | ADCS-ADL (Baseline was assigned the value of zero @ Week 0) ([3]; 1 mg daily dose, Week 4): 0.509 | ADCS-ADL (Baseline was assigned the value of zero @ Week 0) ([3]; 1 mg daily dose, Week 12): 0.9138 | ADCS-ADL (Baseline was assigned the value of zero @ Week 0) ([3]; 1 mg daily dose, Week 18): 0.8306 | ADCS-ADL (Baseline was assigned the value of zero @ Week 0) ([3]; 1 mg daily dose, Week 23): −0.3467 | ADCS-ADL (Baseline was assigned the value of zero @ Week 0) ([3]; 2 mg daily dose, Week 4): 0.908 | ADCS-ADL (Baseline was assigned the value of zero @ Week 0) ([3]; 2 mg daily dose, Week 12): 0.8426 | ADCS-ADL (Baseline was assigned the value of zero @ Week 0) ([3]; 2 mg daily dose, Week 18): 0.8097 | ADCS-ADL (Baseline was assigned the value of zero @ Week 0) ([3]; 2 mg daily dose, Week 23): 0.3166 | ADCS-ADL Effect Size ([3]; 2 mg dose versus Placebo): 0.20 | Responders, ADAS-Cog (≧2 points) ([4]; 0.3 mg): 31% | Responders, ADAS-Cog (≧3 points) ([4]; 0.3 mg): 25% | Responders, ADAS-Cog (≧2 points) ([4]; 1 mg): 33% | Responders, ADAS-Cog (≧3 points) ([4]; 1 mg): 28% | Responders, ADAS-Cog (≧2 points) ([4]; 2 mg): 51% | Responders, ADAS-Cog (≧3 points) ([4]; 2 mg): 45% | Relationship of plasma level and likelihood of being a responder ([4]; responder >3 pt ADAS-Cog effect, logistic regression model, p=0.003): significant plasma level/exposure response relationship exists | Executive Function Composite Score (Baseline was assigned the value of zero @ Week 0) ([5]; 0.3 mg daily dose, Week 4): 0.0074 | Executive Function Composite Score (Baseline was assigned the value of zero @ Week 0) ([5]; 0.3 mg daily dose, Week 12): 0.0391 | Executive Function Composite Score (Baseline was assigned the value of zero @ Week 0) ([5]; 0.3 mg daily dose, Week 18): −0.0224 | Executive Function Composite Score (Baseline was assigned the value of zero @ Week 0) ([5]; 0.3 mg daily dose, Week 23): −0.0153 | Executive Function Composite Score (Baseline was assigned the value of zero @ Week 0) ([5]; 1 mg daily dose, Week 4): 0.0202 | Executive Function Composite Score (Baseline was assigned the value of zero @ Week 0) ([5]; 1 mg daily dose, Week 12): 0.0609 | Executive Function Composite Score (Baseline was assigned the value of zero @ Week 0) ([5]; 1 mg daily dose, Week 18): 0.0418 | Executive Function Composite Score (Baseline was assigned the value of zero @ Week 0) ([5]; 1 mg daily dose, Week 23): 0.0476 | Executive function composite score Effect Size ([5]; 1 mg versus placebo): 0.32 | Executive Function Composite Score (Baseline was assigned the value of zero @ Week 0) ([5]; 2 mg daily dose, Week 4): −0.0311 | Executive Function Composite Score (Baseline was assigned the value of zero @ Week 0) ([5]; 2 mg daily dose, Week 12): −0.0452 | Executive Function Composite Score (Baseline was assigned the value of zero @ Week 0) ([5]; 2 mg daily dose, Week 18): 0.0188 | Executive Function Composite Score (Baseline was assigned the value of zero @ Week 0) ([5]; 2 mg daily dose, Week 23): 0.0244 | Executive function composite score Effect Size ([5]; 2 mg versus placebo): 0.27
